Some results are limits rather than exact numbers.

In ChEMBL document CHEMBL5038625, “Application of the dual-tail approach for the design and synthesis of novel Thiopyrimidine-Benzenesulfonamide hybrids as selective carbonic anhydrase inhibitors” (Eur J Med Chem, 2022) one finds Ki, inhibition of growth and IC50 data, which are given here for 7 compounds.

One test deals with Carbonic anhydrase 9 (Homo sapiens, UniProt Q16790). The test can be described thus: Inhibition of human CA9 preincubated for 15 mins by phenol red dye based stopped flow CO2 hydration assay.
The next test has as its system SF-539. The test can be described thus: Antiproliferative activity against human SF-539 cells assessed as cell growth inhibition at 10 uM incubated for 24 hrs by sulforhodamine B assay. The test is classed as functional. Particulars: read-out: GI. A general note: The SRB assay estimates cell density from bound dye.
In the next test the test system is CCRF-CEM. Briefly: Antiproliferative activity against human CCRF-CEM cells assessed as cell growth inhibition at 10 uM incubated for 24 hrs by sulforhodamine B assay. The test is classed as functional. Conditions: read-out: GI.
The next test has as its system K562. Briefly: Antiproliferative activity against human K562 cells assessed as cell growth inhibition at 10 uM incubated for 24 hrs by sulforhodamine B assay. The test is classed as functional. Conditions: read-out: GI.
The test system of another test is MOLT-4. Briefly: Antiproliferative activity against human MOLT-4 cells assessed as cell growth inhibition at 10 uM incubated for 24 hrs by sulforhodamine B assay. The test is classed as functional. Conditions: read-out: GI.
Another test has as its system SR. Briefly: Antiproliferative activity against human SR cells assessed as cell growth inhibition at 10 uM incubated for 24 hrs by sulforhodamine B assay. Conditions: read-out: GI. The test is classed as functional.
A further test has as its system HOP-92. The test can be described thus: Antiproliferative activity against human HOP-92 cells assessed as cell growth inhibition at 10 uM incubated for 24 hrs by sulforhodamine B assay. The test is classed as functional. Particulars: read-out: GI.
A further test has as its system NCI-H226. The test can be described thus: Antiproliferative activity against human NCI-H226 cells assessed as cell growth inhibition at 10 uM incubated for 24 hrs by sulforhodamine B assay. The test is classed as functional. Particulars: read-out: GI.
The test system of the next test is NCI-H23. Briefly: Antiproliferative activity against human NCI-H23 cells assessed as cell growth inhibition at 10 uM incubated for 24 hrs by sulforhodamine B assay. The test is classed as functional. Conditions: read-out: GI.
Another test relates to HCT-116. The test can be described thus: Antiproliferative activity against human HCT-116 cells assessed as cell growth inhibition at 10 uM incubated for 24 hrs by sulforhodamine B assay. The test is classed as functional. Particulars: read-out: GI.
In a further test the test system is HCT-15. The test can be described thus: Antiproliferative activity against human HCT-15 cells assessed as cell growth inhibition at 10 uM incubated for 24 hrs by sulforhodamine B assay. The test is classed as functional. Particulars: read-out: GI.
The test system of the next test is LOX IMVI. Briefly: Antiproliferative activity against human LOX IMVI cells assessed as cell growth inhibition at 10 uM incubated for 24 hrs by sulforhodamine B assay. Particulars: read-out: GI. The test is classed as functional.
The next test deals with CAKI-1. Briefly: Antiproliferative activity against human CAKI-1 cells assessed as cell growth inhibition at 10 uM incubated for 24 hrs by sulforhodamine B assay. The test is classed as functional. Conditions: read-out: GI.
In a further test the test system is RXF 393. Briefly: Antiproliferative activity against human RXF 393 cells assessed as cell growth inhibition at 10 uM incubated for 24 hrs by sulforhodamine B assay. The test is classed as functional. Conditions: read-out: GI.
The next test relates to SN12C. The test can be described thus: Antiproliferative activity against human SN12C cells assessed as cell growth inhibition at 10 uM incubated for 24 hrs by sulforhodamine B assay. The test is classed as functional. Conditions: read-out: GI.
A further test concerns UO-31. Briefly: Antiproliferative activity against human UO-31 cells assessed as cell growth inhibition at 10 uM incubated for 24 hrs by sulforhodamine B assay. Particulars: read-out: GI. The test is classed as functional.
Another test deals with PC-3. The test can be described thus: Antiproliferative activity against human PC-3 cells assessed as cell growth inhibition at 10 uM incubated for 24 hrs by sulforhodamine B assay. The test is classed as functional. Particulars: read-out: GI.
The test system of test [1] is MCF7. The test can be described thus: Antiproliferative activity against human MCF7 cells assessed as cell growth inhibition at 10 uM incubated for 24 hrs by sulforhodamine B assay. The test is classed as functional. Particulars: read-out: GI.
Test [2] concerns T47D. Briefly: Antiproliferative activity against human T47D cells assessed as cell growth inhibition at 10 uM incubated for 24 hrs by sulforhodamine B assay. The test is classed as functional. Conditions: read-out: GI.
Test [3] has as its system MCF7. The test can be described thus: Antiproliferative activity against human MCF7 cells assessed as reduction in cell viability incubated for 24 hrs by sulforhodamine B assay. The test is classed as functional, cell-based. Particulars: MCF7, 24 h.
Test [4] concerns T47D. Briefly: Antiproliferative activity against human T47D cells assessed as reduction in cell viability incubated for 24 hrs by sulforhodamine B assay. The test is classed as functional, cell-based.
Test [5] relates to MDA-MB-231. Briefly: Antiproliferative activity against human MDA-MB-231 cells assessed as reduction in cell viability incubated for 24 hrs by sulforhodamine B assay. The test is classed as functional, cell-based. Conditions: MDA-MB-231, 24 h.
In test [6] the test system is MDA-MB-231. The test can be described thus: Antiproliferative activity against human MDA-MB-231 cells assessed as cell growth inhibition at 10 uM incubated for 24 hrs by sulforhodamine B assay. The test is classed as functional. Particulars: read-out: GI.
The next test addresses Carbonic anhydrase 1 (Homo sapiens, UniProt P00915). Briefly: Inhibition of human CA1 preincubated for 15 mins by phenol red dye based stopped flow CO2 hydration assay.
A further test addresses Carbonic anhydrase 2 (Homo sapiens, UniProt P00918). The test can be described thus: Inhibition of human CA2 preincubated for 15 mins by phenol red dye based stopped flow CO2 hydration assay.
A further test concerns HL-60. The test can be described thus: Antiproliferative activity against human HL-60 cells assessed as cell growth inhibition at 10 uM incubated for 24 hrs by sulforhodamine B assay. Particulars: read-out: GI. The test is classed as functional.
The test system of another test is RPMI-8226. The test can be described thus: Antiproliferative activity against human RPMI-8226 cells assessed as cell growth inhibition at 10 uM incubated for 24 hrs by sulforhodamine B assay. The test is classed as functional. Conditions: read-out: GI.
In a further test the test system is NCI-H522. The test can be described thus: Antiproliferative activity against human NCI-H522 cells assessed as cell growth inhibition at 10 uM incubated for 24 hrs by sulforhodamine B assay. The test is classed as functional. Conditions: read-out: GI.
Another test relates to SNB-19. The test can be described thus: Antiproliferative activity against human SNB-19 cells assessed as cell growth inhibition at 10 uM incubated for 24 hrs by sulforhodamine B assay. The test is classed as functional. Particulars: read-out: GI.
A further test concerns UACC-62. The test can be described thus: Antiproliferative activity against human UACC-62 cells assessed as cell growth inhibition at 10 uM incubated for 24 hrs by sulforhodamine B assay. Conditions: read-out: GI. The test is classed as functional.
In the next test the test system is ACHN. Briefly: Antiproliferative activity against human ACHN cells assessed as cell growth inhibition at 10 uM incubated for 24 hrs by sulforhodamine B assay. Conditions: read-out: GI. The test is classed as functional.
Another test concerns MDA-MB-468. Briefly: Antiproliferative activity against human MDA-MB-468 cells assessed as cell growth inhibition at 10 uM incubated for 24 hrs by sulforhodamine B assay. The test is classed as functional. Conditions: read-out: GI.

Chain of Carbonic anhydrase 1 (P00915 whole entry): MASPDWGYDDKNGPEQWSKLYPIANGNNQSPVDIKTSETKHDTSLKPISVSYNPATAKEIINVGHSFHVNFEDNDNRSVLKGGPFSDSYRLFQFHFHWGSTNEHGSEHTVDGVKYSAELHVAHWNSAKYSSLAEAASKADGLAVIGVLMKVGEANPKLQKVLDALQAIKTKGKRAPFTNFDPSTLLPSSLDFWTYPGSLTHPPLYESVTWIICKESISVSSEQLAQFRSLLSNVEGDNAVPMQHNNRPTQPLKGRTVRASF

The term Ki denotes the dissociation constant of the complex between target and ligand, obtained from inhibition or displacement. Lower therefore signals higher affinity. Broadly, the IC50 is the midpoint of a concentration-inhibition curve. For the compound `Cc1ccc(-c2nc(SCC(=O)c3ccc(Br)cc3)nc(Nc3cccc(S(N)(=O)=O)c3)c2C#N)cc1`, the affinity on Carbonic anhydrase 9, expressed as Ki, was 0.0887 µM. In addition, the inhibition of growth at 10 µM with SF-539 was determined as 17.5%; in the test with CCRF-CEM, 6.1%; with K562 it was 6.32%; in the test on MOLT-4 it was 9.7%; in the test with SR it was 11.3%; in the test on HOP-92, 67.2%. In addition, the inhibition of growth at 10 µM in the test on NCI-H226 worked out at 12.7%; with NCI-H23, 7.38%; in the test with HCT-116, 8.06%; with HCT-15, 5.65%; with LOX IMVI, 11.8%; in the test with CAKI-1, 20%. The inhibition of growth at 10 µM in the test with RXF 393 worked out at 17.6%; in the test on SN12C it was 5.02%; in the test on UO-31 it was 36.7%; with PC-3, 13.4%; with MCF7 [1] it was 7.76%; in the test on T47D [2] it was 6.01%. The inhibition of growth at 10 µM in the test with MDA-MB-231 [6] was found to be 6.75%. The IC50 in the test with MCF7 [3] is more than 100 µM; in the test on T47D [4], 60 µM; in the test on MDA-MB-231 [5], more than 100 µM.
Regarding `Cc1ccc(-c2nc(SCC(=O)c3ccccc3)nc(Nc3cccc(S(N)(=O)=O)c3)c2C#N)cc1`, the Ki at Carbonic anhydrase 1 is more than 20 µM; at Carbonic anhydrase 2 it was more than 20 µM; on Carbonic anhydrase 9, 7.64 µM. Also, the inhibition of growth at 10 µM in the test on SF-539 was determined as 14.1%; with SR, 7.6%; in the test with HOP-92, 65.2%; with NCI-H23, 5.21%; in the test with HCT-15, 5.35%; in the test with LOX IMVI it was 11.3%. For the same compound, the inhibition of growth at 10 µM turned out to be 13.6% in the test on CAKI-1; 12.6% with RXF 393; 24.4% in the test on UO-31; 6.2% in the test on PC-3; 11.9% with MCF7 [1].
For `COc1ccc(C(=O)CSc2nc(Nc3ccc(S(N)(=O)=O)cc3)c(C#N)c(-c3cc(OC)ccc3OC)n2)cc1`, the Ki is more than 20 µM on Carbonic anhydrase 1 and 8.93 µM at Carbonic anhydrase 9.
In the case of `COc1ccc(C(=O)CSc2nc(Nc3cccc(S(N)(=O)=O)c3)c(C#N)c(C(C)C)n2)cc1`, the Ki was more than 20 µM at Carbonic anhydrase 2 and 0.0949 µM on Carbonic anhydrase 9. The inhibition of growth at 10 µM in the test with SF-539 came to 7.32%; with CCRF-CEM, 6.87%; in the test on HL-60, 6.4%; with K562 it was 18.5%; in the test on MOLT-4, 13.4%; in the test on RPMI-8226, 5.91%. Besides, the inhibition of growth at 10 µM in the test with SR came to 11%; in the test on HOP-92, 11.6%; in the test with NCI-H23, 11%; in the test with NCI-H522 it was 6.43%; in the test with HCT-15, 6.79%; in the test on SNB-19, 5.74%. Also, the inhibition of growth at 10 µM amounted to 11.6% in the test with UACC-62; 6.14% in the test with ACHN; 10.8% with CAKI-1; 10.2% with RXF 393; 20.4% with UO-31; 7.35% in the test on PC-3. Further, the inhibition of growth at 10 µM turned out to be 12.9% in the test on MCF7 [1], 14.2% in the test with T47D [2] and 8.74% with MDA-MB-468.
In turn, `COc1ccc(C(=O)CSc2nc(Nc3cccc(S(N)(=O)=O)c3)c(C#N)c(-c3ccc(C)cc3)n2)cc1` came in with a Ki on Carbonic anhydrase 9 of 0.878 µM. That is a sub-micromolar value.
Compound `COc1ccc(C(=O)CSc2nc(Nc3ccc(S(N)(=O)=O)cc3)c(C#N)c(-c3ccc(C)cc3)n2)cc1` came in with an inhibition constant (Ki) at Carbonic anhydrase 9 of 8.71 µM.
Regarding `COc1ccc(OC)c(-c2nc(SCC(=O)c3ccccc3)nc(Nc3cccc(S(N)(=O)=O)c3)c2C#N)c1`, the Ki at Carbonic anhydrase 2 is more than 20 µM; at Carbonic anhydrase 9 it was 5.05 µM.
